# In PubChem BioAssay (NCI):
#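 Cells were grown in 96-well plates and exposed to each compound for 48 hours at five concentrations; endpoints were interpolated linearly between bracketing concentrations, or set to the highest concentration if not reached. TGI: total growth inhibition.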
# Columns and labels:
# Experiment in all cases: inhibition of tumour cell growth, NCI panel, 48 h
# [1] = test system: 786-0 renal
# [2] = test system: A498 renal
# [3] = test system: A549 NSCLC
# [4] = test system: ACHN renal
# [5] = test system: BT-549 breast
# [6] = test system: CAKI-1 renal
# [7] = test system: CCRF-CEM leukemia
# [8] = test system: COLO 205 colon
# [9] = test system: DU-145 prostate
# [10] = test system: EKVX NSCLC
# [11] = test system: HCC-2998 colon
# [12] = test system: HCT-116 colon
# [13] = test system: HCT-15 colon
# [14] = test system: HL-60(TB) leukemia
# [15] = test system: HOP-62 NSCLC
# [16] = test system: HOP-92 NSCLC
# [17] = test system: HS 578T breast
# [18] = test system: HT29 colon
# [19] = test system: IGROV1 ovarian
# [20] = test system: K-562 leukemia
# [21] = test system: KM12 colon
# [22] = test system: LOX IMVI melanoma
# [23] = test system: M14 melanoma
# [24] = test system: MALME-3M melanoma
# [25] = test system: MCF7 breast
# [26] = test system: MDA-MB-231 breast
# [27] = test system: MDA-MB-435
# [28] = test system: MDA-N
# [29] = test system: MOLT-4 leukemia
# [30] = test system: NCI-H226 lung
# [31] = test system: NCI-H23 lung
# [32] = test system: NCI-H460 lung
# [33] = test system: NCI-H522 lung
# [34] = test system: NCI/ADR-RES ovarian
# [35] = test system: OVCAR-3 ovarian
# [36] = test system: OVCAR-4 ovarian
# [37] = test system: OVCAR-5 ovarian
# [38] = test system: OVCAR-8 ovarian
# [39] = test system: PC-3 prostate
# [40] = test system: RPMI-8226 leukemia
# [41] = test system: RXF 393 renal
# [42] = test system: SF-268 CNS
# [43] = test system: SF-295 CNS
# [44] = test system: SK-MEL-2 melanoma
# [45] = test system: SK-MEL-28 melanoma
# [46] = test system: SK-MEL-5 melanoma
# [47] = test system: SK-OV-3 ovarian
# [48] = test system: SN12C renal
# [49] = test system: SNB-19 CNS
# [50] = test system: SNB-75 CNS
# [51] = test system: SR leukemia
# [52] = test system: SW-620 colon
# [53] = test system: T-47D breast
# [54] = test system: U251 CNS
# [55] = test system: UACC-257 melanoma
# [56] = test system: UACC-62 melanoma
# [57] = test system: UO-31 renal
# [58] = test system: SF-539 CNS
# [59] = test system: TK-10 renal
smiles,measurement,setting,value
O=C1O[C@H]2[C@H](OC(=O)c3cc(O)c(O)c(O)c3)[C@@H](OC(=O)c3cc(O)c(O)c4c3[C@@H]3C1=CC(=O)C(O)(O)C3(O)O4)[C@H](OC(=O)c1cc(O)c(O)c(O)c1)O[C@@H]2COC(=O)c1cc(O)c(O)c(O)c1 (some centres not stated),TGI,[1],> 100 µM
same,TGI,[2],> 100 µM
same,TGI,[3],> 100 µM
same,TGI,[4],> 100 µM
same,TGI,[5],> 100 µM
same,TGI,[6],> 100 µM
same,TGI,[7],> 100 µM
same,TGI,[8],> 100 µM
same,TGI,[9],> 100 µM
same,TGI,[10],> 100 µM
same,TGI,[11],> 100 µM
same,TGI,[12],> 100 µM
same,TGI,[13],> 100 µM
same,TGI,[14],> 100 µM
same,TGI,[15],> 100 µM
same,TGI,[16],> 100 µM
same,TGI,[17],> 100 µM
same,TGI,[18],> 100 µM
same,TGI,[19],> 100 µM
same,TGI,[20],> 100 µM
same,TGI,[21],41.1 µM
same,TGI,[22],> 100 µM
same,TGI,[23],> 100 µM
same,TGI,[24],> 100 µM
same,TGI,[25],> 100 µM
same,TGI,[26],> 100 µM
same,TGI,[27],> 100 µM
same,TGI,[28],> 100 µM
same,TGI,[29],> 100 µM
same,TGI,[30],> 100 µM
same,TGI,[31],> 100 µM
same,TGI,[32],> 100 µM
same,TGI,[33],> 100 µM
same,TGI,[34],> 100 µM
same,TGI,[35],> 100 µM
same,TGI,[36],> 100 µM
same,TGI,[37],> 100 µM
same,TGI,[38],> 100 µM
same,TGI,[39],> 100 µM
same,TGI,[40],> 100 µM
same,TGI,[41],> 100 µM
same,TGI,[42],> 100 µM
same,TGI,[43],> 100 µM
same,TGI,[44],> 100 µM
same,TGI,[45],> 100 µM
same,TGI,[46],> 100 µM
same,TGI,[47],> 100 µM
same,TGI,[48],> 100 µM
same,TGI,[49],> 100 µM
same,TGI,[50],> 100 µM
same,TGI,[51],> 100 µM
same,TGI,[52],> 100 µM
same,TGI,[53],> 100 µM
same,TGI,[54],> 100 µM
same,TGI,[55],> 100 µM
same,TGI,[56],> 100 µM
same,TGI,[57],> 100 µM
CN(C)c1c(C2OC(CO)C(O)C2O)c(=O)c1=O (configuration not stated),TGI,[1],> 100 µM
same,TGI,[2],> 100 µM
same,TGI,[3],> 100 µM
same,TGI,[4],> 100 µM
same,TGI,[5],> 100 µM
same,TGI,[6],> 100 µM
same,TGI,[7],> 100 µM
same,TGI,[9],> 100 µM
same,TGI,[10],> 100 µM
same,TGI,[11],> 100 µM
same,TGI,[12],> 100 µM
same,TGI,[13],> 100 µM
same,TGI,[15],> 100 µM
same,TGI,[16],> 100 µM
same,TGI,[17],> 100 µM
same,TGI,[18],> 100 µM
same,TGI,[19],> 100 µM
same,TGI,[20],> 100 µM
same,TGI,[21],> 100 µM
same,TGI,[22],> 100 µM
same,TGI,[23],> 100 µM
same,TGI,[24],> 100 µM
same,TGI,[25],> 100 µM
same,TGI,[26],> 100 µM
same,TGI,[27],> 100 µM
same,TGI,[28],> 100 µM
same,TGI,[29],> 100 µM
same,TGI,[30],> 100 µM
same,TGI,[31],> 100 µM
same,TGI,[32],> 100 µM
same,TGI,[33],> 100 µM
same,TGI,[34],> 100 µM
same,TGI,[35],> 100 µM
same,TGI,[36],> 100 µM
same,TGI,[37],> 100 µM
same,TGI,[38],> 100 µM
same,TGI,[39],> 100 µM
same,TGI,[40],> 100 µM
same,TGI,[41],> 100 µM
same,TGI,[42],> 100 µM
same,TGI,[43],> 55.4 µM
same,TGI,[58],> 100 µM
same,TGI,[44],> 100 µM
same,TGI,[45],> 100 µM
same,TGI,[47],> 100 µM
same,TGI,[48],> 100 µM
same,TGI,[49],> 100 µM
same,TGI,[50],> 100 µM
same,TGI,[51],> 100 µM
same,TGI,[52],> 100 µM
same,TGI,[53],> 100 µM
same,TGI,[59],> 100 µM
same,TGI,[54],> 100 µM
same,TGI,[55],> 100 µM
same,TGI,[56],> 100 µM
same,TGI,[57],> 100 µM
O=C(/C=C/c1ccccc1)Nc1ccccc1SCCCCl,TGI,[1],> 100 µM
same,TGI,[2],> 29.5 µM
same,TGI,[3],> 100 µM
same,TGI,[4],> 100 µM
same,TGI,[5],> 36 µM
same,TGI,[6],> 100 µM
same,TGI,[7],> 100 µM
same,TGI,[8],48.5 µM
same,TGI,[9],> 100 µM
same,TGI,[10],> 100 µM
same,TGI,[11],73.9 µM
same,TGI,[12],39.1 µM
same,TGI,[13],> 100 µM
same,TGI,[14],43.6 µM
same,TGI,[15],> 100 µM
same,TGI,[16],> 30.9 µM
same,TGI,[17],> 29.3 µM
same,TGI,[18],> 41.4 µM
same,TGI,[19],> 51.5 µM
same,TGI,[20],> 100 µM
same,TGI,[21],> 64.6 µM
same,TGI,[22],> 68.2 µM
same,TGI,[23],> 100 µM
same,TGI,[24],> 100 µM
same,TGI,[25],> 100 µM
same,TGI,[26],74.5 µM
same,TGI,[27],37 µM
same,TGI,[28],28.6 µM
same,TGI,[29],> 100 µM
same,TGI,[30],> 100 µM
same,TGI,[31],40.7 µM
same,TGI,[32],> 82.2 µM
same,TGI,[33],24.3 µM
same,TGI,[34],35.1 µM
same,TGI,[35],> 92.1 µM
same,TGI,[36],> 100 µM
same,TGI,[37],> 100 µM
same,TGI,[38],> 69.8 µM
same,TGI,[39],> 100 µM
same,TGI,[40],> 100 µM
same,TGI,[41],84.2 µM
same,TGI,[42],> 100 µM
same,TGI,[43],49.4 µM
same,TGI,[58],39.8 µM
same,TGI,[44],> 100 µM
same,TGI,[45],> 100 µM
same,TGI,[46],> 91.4 µM
same,TGI,[47],> 100 µM
same,TGI,[48],98.5 µM
same,TGI,[49],> 95.4 µM
same,TGI,[50],> 87.1 µM
same,TGI,[51],64.7 µM
same,TGI,[52],> 62.4 µM
same,TGI,[53],> 85.8 µM
same,TGI,[59],> 100 µM
same,TGI,[54],> 82.8 µM
same,TGI,[55],> 100 µM
same,TGI,[56],> 72.7 µM
same,TGI,[57],91.6 µM
